One data set can be described thus: Solubility. It is filed as physicochemical. As to conditions: water, thermodynamic from solid, water, read-out: Solubility. The procedure: A stir bar was put in the vial. The vials were closed with caps and placed on stir plate. […] After equilibration, the samples were centrifuged. An accurate aliquot of clear solution was transferred to a HPLC vial by micropipette. The solubility was determined by HPLC with UV detector and against standard.

Data set [1] is described as follows: Pharmacokinetic studies in male beagle dogs. It is filed as in vivo, beagle dog. On the procedure: Compound 34 (634A in tables and on plots) was dosed as a solid as well as in solution form to male beagle dogs according to the following protocol. Plasma samples were analyzed using the following methods:
Blood samples from the test animals were drawn at periodic intervals, before, and after administration of the test articles. The samples were dispensed into chilled (˜+4° C.) blood tubes containing EDTA anticoagulant which were stored “on ice” (˜+4° C.) prior to centrifugation and separation of the plasma fractions. The plasma samples were transferred to frozen storage (−20° C.) within 30 minutes of blood sampling.
The plasma samples were thawed at room temperature, vortex-mixed for 10 seconds, and 100 μL aliquots transferred to 96-well micro-plates. […]
The supernatant fractions of the wells were transferred to a fresh micro-plate and then evaporated to dryness at 37° C. under a stream of (O2-free) nitrogen. The well residues were reconstituted in 100 μL volumes of acetonitrile:water:acetic acid (40:59.9:0.1 v/v/v) and 20 μL volumes were analyzed by HPLC-MS-MS. […]
The measurement of signal peaks areas, calibration and quantification were carried out using the Turbo-Quan V1.5 (Sciex Inc.) data acquisition and processing software (DAQ) suite. […]

Data set [2] is described as follows: Oral bioavailability in male Sprague-Dawley rats. It is filed as in vivo, Sprague-Dawley (CD) rat. On the procedure:
Methods used were generally as described in Example 53, with the following modifications: Sample Collection—In addition to anticoagulant (EDTA), an enzyme inhibitor cocktail containing 50 μL of 100 mM AEBSF (4-(2-aminoethyl)benzenessulfonylfluoride HCl, CalBioChem, cat. no. 101500); 200 mM Benzamide(CalBioChem, cat. no. 199001); and 200 mM EACA (Epislon Amino-n-caproic acid, CalBioChem cat. no. 1381) in FTA Hemaglutionation Buffer (Becton Dickson, cat. no. 4311248) per 1 mL of blood was added to rat blood samples at the time of collection.
HPLC-MS-MS Conditions—Chromatography was performed on a Phenomenex Aqua C18 HPLC Mercury Cartridge (3-micron particle size, 20 mm×2 mm id) or Luna C18 column (50×2 mm).

The next data set has as its system HIV-1 (strain IIIIB). In words: MT4 cell assay (propidium iodide readout). It is filed as cell-based. The note with it: Human immunodeficiency virus 1, control and standard, MT4 cells, read-out: expected range of IC50 values. On the procedure: Antiviral HIV activity and compound-induced cytotoxicity were measured in parallel by means of a propidium iodide based procedure in the human T-cell lymphotropic virus transformed cell line MT4. Aliquots of the test compounds were serially diluted in medium (RPMI 1640, 10% fetal calf serum (FCS), and gentamycin) in 96-well plates (Costar 3598) using a Cetus Pro/Pette. Exponentially growing MT4 cells were harvested and centrifuged at 1000 rpm for 10 min in a Jouan centrifuge (model CR 4 12). Cell pellets were resuspended in fresh medium (RPMI 1640, 20% FCS, 20% IL-2, and gentamycin) to a density of 5×10^5 cells/ml. […] The plates were analyzed in an automated assay instrument (Screen Machine, Idexx Laboratories). […] The assay makes use of a propidium iodide dye to estimate the DNA content of each well. • B. For MTS readout, 20 μl CellTiter 96 AQ One Solution reagent (Promega #G3582) was added to each well. At 75 minutes following the addition of MTS reagent, absobance was read at 492 nm using a Tecan Sunrise 96-well plate reader. […]
For each assay plate, the results (relative fluorescence units, rfU, or OD values) of wells containing uninfected cells or infected cells with no compound were averaged, respectively. […] Percent of cells remaining is determined by the following formula: Percent of cells remaining=(compound-treated uninfected cells, rfU, or OD values/untreated uninfected cells)×100. […]

Experimental findings from patent publication US6995283B2, “Benzophenones as inhibitors of reverse transcriptase” (priority 2001, dated 2006) are described below.

Counter-ions that a name gives are not always drawn. Like-named read-outs stand apart in the source and are kept apart here.

A word on the solubility: it is the concentration that dissolves in the medium under given conditions. A word on the IC50: it is the concentration needed to halve the response being measured.

As to `CCC(=O)NS(=O)(=O)c1ccc(NC(=O)COc2ccc(Cl)cc2C(=O)c2cc(Cl)cc(C#N)c2)c(C)c1` [Compound 34, 2-[4-chloro-2-(3-chloro-5-cyanobenzoyl)phenoxy]-N-{2-methyl-4-[(propionylamino)sulfonyl]phenyl}acetamide, Sodium Salt], the solubility in “Solubility” (Amorphous) is greater than 100 mg/mL; in “Solubility” (Crystal Form 1), 92 mg/mL; in “Solubility” (Crystal Form 4) it was 2.5 mg/mL; in the data set “Solubility” (Crystal Form 9), greater than 100 mg/mL; in the data set “Solubility” (Crystal Form 10), greater than 100 mg/mL; in “Solubility” (Crystal Form 12), greater than 100 mg/mL. Further, the “appearance of active inhibitor compound 40 in plasma after administration” value in data set [1] and in data set [2] was “appears in the plasma” each time. Moreover, the “bioavailability after oral administration (in words)” value in data set [1] (oral) was “excellent bioavailability”; in data set [2] (oral, in comparison to the parent compound 40), “improved bioavailability”.
`Cc1cn([C@H]2C[C@H](N=[N+]=[N-])[C@@H](CO)O2)c(=O)[nH]c1=O` [3′-azido-3′-deoxythymidine]: the concentration for half-maximal inhibition (IC50) in the data set on HIV-1 (strain IIIIB) was in the range of 40 to 120 nM.
